Data taken from patent US20180071303A1, “SYK INHIBITORS” (Gilead Sciences, Inc., priority 2016, published 2018).

Key:
[1] = Nijjar J. S. et al., Rheumatology 2013; cited from earlier work
[2] = test system: previously untreated AML; assay: phase 1b/2 study (NCT02343939) of entospletinib monotherapy followed by combination with daunorubicin and cytarabine; conditions: for complete remission (CR) rate: with induction chemotherapy
Source text: Patients with residual disease two weeks after chemotherapy received a second induction cycle identical to the first.

Row | SMILES | adverse side effects [1] | patients requiring a second induction ([2]; 200 mg BID, 3 patients) | complete remission (CR) rate ([2]; 200 mg BID, 3 patients) | dose limiting toxicity (DLT) ([2]; 200 mg BID, three patients) | dose limiting toxicity (DLT) ([2]; 400 mg BID, 3 additional patients (DL 1 expanded)) | patients requiring a second induction ([2]; 400 mg BID, 6 patients) | complete remission (CR) rate ([2]; 400 mg BID, 6 patients) | adverse event possibly related to entospletinib ([2]; 400 mg BID, one of three patients, with documented fungal pneumonia, did not meet DLT criteria) | platelet response during the window period ([2]; another patient with 11q23-rearranged AML, monotherapy window) | toxicities after combination with intensive chemotherapy ([2]; combination with daunorubicin and cytarabine) | tolerability of combination with intensive chemotherapy ([2]; doses up to 400 mg BID) | tolerability of single-agent entospletinib ([2]; monotherapy window period (up to 14 days), AML patients) | clinical activity in AML ([2]; overall conclusion) | most common non hematologic adverse events ([2]; overall, inclusive of intensive chemotherapy periods) | response after entospletinib monotherapy window ([2]; person with 11q23-rearranged AML, 14 day monotherapy, prior to chemotherapy)
1 | COc1cc(Nc2ncc(F)c(Nc3ccc4c(n3)N(COP(=O)(O)O)C(=O)C(C)(C)O4)n2)cc(OC)c1OC [Fostamatinib] | hypertension, neutropenia and transaminitis | – | – | – | – | – | – | – | – | – | – | – | – | – | –
2 | c1cn2cc(-c3ccc4cn[nH]c4c3)nc(Nc3ccc(N4CCOCC4)cc3)c2n1 [entospletinib] | – | two | 100% | no DLT was observed | none of whom experienced DLT | none | 100% | grade 3 pneumonitis | significant platelet response | common and typical | well tolerated | well tolerated | significant clinical activity | febrile neutropenia, nausea, and diarrhea | achieved morphologic and cytogenetic CR
